Consider one molecule from ChEMBL document CHEMBL5154799, “Discovery of a Novel Stilbene Derivative as a Microtubule Targeting Agent Capable of Inducing Cell Ferroptosis” (J Med Chem, 2022).

Common to all, as to assay type: functional, cell-based
The subject of experiment [1] is A549. Put plainly: Antiproliferative activity against human A549 cells assessed as cell viability incubated for 48 hrs by MTT assay. Particulars: A549, 48 h. On the technique in general: Formazan colour is commonly taken as a measure of viable cells.
The subject of experiment [2] is HeLa. In words: Antiproliferative activity against human HeLa cells assessed as cell viability incubated for 48 hrs by MTT assay.
In experiment [3] the test system is A2780. Put plainly: Antiproliferative activity against human A2780 cells assessed as cell viability incubated for 48 hrs by MTT assay. As to conditions: A2780, 48 h.
Experiment [4] has as its system HCT-8. In words: Antiproliferative activity against human HCT-8 cells assessed as cell viability incubated for 48 hrs by MTT assay. Particulars: HCT-8, 48 h.
The test system of experiment [5] is MCF7. In words: Antiproliferative activity against human MCF7 cells assessed as cell viability incubated for 48 hrs by MTT assay. Particulars: MCF7, 48 h.
Experiment [6] relates to A549. Put plainly: Induction of apoptosis in human A549 cells assessed as cell viability pretreated with caspase inhibitor Z-VAD-FMK for 24 hrs followed by incubation with compound at 100 nM and measured after 48 hrs by CCK-8 assay.
Experiment [7] concerns A549. In words: Induction of apoptosis in human A549 cells assessed as cell viability pretreated with necroptosis inhibitor necrostatin-I for 24 hrs followed by incubation with compound at 100 nM and measured after 48 hrs by CCK-8 assay.
Experiment [8] relates to A549. In words: Induction of apoptosis in human A549 cells assessed as cell viability pretreated with autophagy inhibitor 3-methyladenine for 24 hrs followed by incubation with compound at 100 nM and measured after 48 hrs by CCK-8 assay.
In experiment [9] the test system is A549. Put plainly: Induction of apoptosis in human A549 cells assessed as cell viability pretreated with ferroptosis inhibitor desferoxamine for 24 hrs followed by incubation with compound at 100 nM and measured after 48 hrs by CCK-8 assay.
Experiment [10] deals with A549. Put plainly: Induction of apoptosis in human A549 cells assessed as cell viability pretreated with ferroptosis inhibitor ferrostatin-1 for 24 hrs followed by incubation with compound at 100 nM and measured after 48 hrs by CCK-8 assay.
Experiment [11] relates to A549. Put plainly: Induction of lipid […] accumulation in human A549 cells at 100 nM incubated for 24 hrs by C11-BODIPY-581/591 staining based flow cytometry analysis.

Activity calls are given as the source filed them. No cut-off for these calls is given here.

`C=C(c1ccc(OC)cc1NC(=O)CO)c1ccc(OC)c2c1OC(C)(C)C=C2`: the IC50 was determined as 40 nM in experiment [1]; 40 nM in [2]; 40 nM in experiment [3]; 130 nM in experiment [4]; 100 nM in experiment [5]. Also, the outcome in experiment [6], in [7], in experiment [8], in experiment [9], in experiment [10] and in experiment [11] was Active.

The IC50 is the concentration that gives 50% inhibition.
